pEC50: −log10 of the molar value.
How the values were obtained:
[1] = test system: Human immunodeficiency virus 1; test: Antiviral activity against HIV1; assay type: functional, organism-based
HEK293 = test: Cytotoxicity against HEK293T cells; assay type: functional; conditions: Homo sapiens
[2] = test system: Human immunodeficiency virus 1; test: Antiviral activity against HIV1 E138K mutant; assay type: functional, organism-based
[3] = test system: Human immunodeficiency virus 1; test: Antiviral activity against HIV1 F227L mutant; assay type: functional, organism-based
[4] = test system: Human immunodeficiency virus 1; test: Antiviral activity against HIV1 I135V mutant; assay type: functional, organism-based
[5] = test system: Human immunodeficiency virus 1; test: Antiviral activity against HIV1 K103N mutant; assay type: functional, organism-based
[6] = test system: Human immunodeficiency virus 1; test: Antiviral activity against HIV1 L100I mutant; assay type: functional, organism-based
[7] = test system: Human immunodeficiency virus 1; test: Antiviral activity against HIV1 V106A mutant; assay type: functional, organism-based
[8] = test system: Human immunodeficiency virus 1; test: Antiviral activity against HIV1 Y181C mutant; assay type: functional, organism-based
[9] = test system: Human immunodeficiency virus 1; test: Antiviral activity against HIV1 Y188L mutant; assay type: functional, organism-based
[10] = test system: Human immunodeficiency virus 1; test: Antiviral activity against HIV1 V179E mutant; assay type: functional, organism-based
[11] = test system: Human immunodeficiency virus 1; test: Antiviral activity against HIV1 Y181H mutant; assay type: functional, organism-based
[12] = test system: Human immunodeficiency virus 1; test: Antiviral activity against HIV1 Y181S mutant; assay type: functional, organism-based

Row | Compound | pEC50 [1] | CC50 (HEK293) [nM] | pEC50 [2] | pEC50 [3] | pEC50 [4] | pEC50 [5] | pEC50 [6] | pEC50 [7] | pEC50 [8] | pEC50 [9] | pEC50 [10] | pEC50 [11] | pEC50 [12]
1 | CCOC(=O)C12CC1(C)c1cc(Cl)ccc1NC2=O (stereo not given) | < 5.00 | > 10000 | – | – | – | – | – | – | – | – | – | – | –
2 | CCCCC12CC1(C(=O)Oc1ccc(C#N)cc1)C(=O)Nc1ccc(Cl)cc12 (stereo not given) | 5.96 | > 10000 | – | – | – | – | – | – | – | – | – | – | –
3 | CCOC(=O)C12CC1(CC(C)C)c1cc(Cl)ccc1NC2=O (stereo not given) | 7.24 | > 10000 | 7.04 | 7.66 | 7.07 | < 5.00 | 7.20 | 5.53 | < 5.00 | < 5.00 | 5.40 | 6.68 | 6.05
4 | CCCCC12CC1(C(=O)Nc1ccccc1C(N)=O)C(=O)Nc1ccc(Cl)cc12 (stereo not given) | 5.88 | > 10000 | – | – | – | – | – | – | – | – | – | – | –
5 | CCOC(=O)C12CC1(C1CCCCC1)c1cc(Cl)ccc1NC2=O (stereo not given) | < 5.00 | > 10000 | – | – | – | – | – | – | – | – | – | – | –
6 | CCCCC12CC1(C(=O)N1CCCC1)C(=O)Nc1ccc(Cl)cc12 (stereo not given) | < 5.00 | > 10000 | – | – | – | – | – | – | – | – | – | – | –
7 | C=CCOC(=O)C12CC1(CCCC)c1cc(Cl)ccc1NC2=O (stereo not given) | 9.00 | > 10000 | 7.49 | 9.00 | 7.64 | 5.97 | 9.00 | 5.91 | 5.53 | < 5.00 | 6.63 | 7.70 | 6.03
8 | CCCCCC12CC1(C(=O)OCC)C(=O)Nc1ccc(Cl)cc12 (stereo not given) | 9.00 | > 10000 | 7.74 | 8.30 | 7.77 | 6.17 | 7.92 | 6.62 | 6.03 | < 5.00 | 6.63 | 7.80 | 6.43
9 | CCCCC12CC1(C(=O)NCCC(=O)O)C(=O)Nc1ccc(Cl)cc12 (stereo not given) | < 5.00 | > 10000 | – | – | – | – | – | – | – | – | – | – | –
10 | CCCCC12CC1(C(=O)NC(C)C)C(=O)Nc1ccc(Cl)cc12 (stereo not given) | 5.56 | > 10000 | – | – | – | – | – | – | – | – | – | – | –
11 | CCCCC12CC1(C(=O)N1CCC1)C(=O)Nc1ccc(Cl)cc12 (stereo not given) | < 5.00 | > 10000 | – | – | – | – | – | – | – | – | – | – | –
12 | CCOC(=O)C12CC1(C1CCCC1)c1cc(Cl)ccc1NC2=O (stereo not given) | 5.49 | > 10000 | – | – | – | – | – | – | – | – | – | – | –
13 | CCCCC12CC1(C(=O)Nc1ccccc1C#N)C(=O)Nc1ccc(Cl)cc12 (stereo not given) | 5.77 | 6090 | – | – | – | – | – | – | – | – | – | – | –
14 | CCCCC1(C)c2cc(Cl)ccc2NC(=O)C1C(=O)OCC (stereo not given) | 5.85 | > 10000 | – | – | – | – | – | – | – | – | – | – | –
15 | CCOC(=O)C12CC1(C1CC1)c1cc(Cl)ccc1NC2=O (stereo not given) | < 5.00 | > 10000 | – | – | – | – | – | – | – | – | – | – | –
16 | CCCCC12CC1(C(=O)OCC)C(=O)Nc1ccc(Cl)cc12 (stereo not given) | 8.52 | > 10000 | 7.33 | 8.15 | 7.55 | 6.05 | 7.85 | 6.55 | 5.78 | < 5.00 | 6.04 | 8.05 | 6.16
17 | CCCCC12CC1(C(=O)Nc1ccc(C(N)=O)cc1)C(=O)Nc1ccc(Cl)cc12 (stereo not given) | 5.34 | > 10000 | – | – | – | – | – | – | – | – | – | – | –
18 | CCCCC12CC1(CO)C(=O)Nc1ccc(Cl)cc12 (stereo not given) | 6.13 | > 10000 | – | – | – | – | – | – | – | – | – | – | –
19 | O=C1Nc2ccc(Cl)cc2C(C#CC2CC2)(C(F)(F)F)O1 (single isomer, unassigned) [EFAVIRENZ] | – | > 10000 | 8.70 | 9.00 | 9.00 | – | – | 8.40 | – | 6.55 | 8.22 | 8.70 | 9.00
20 | CCCCC12CC1(C(=O)NCc1ccccc1)C(=O)Nc1ccc(Cl)cc12 (stereo not given) | 5.55 | 8820 | – | – | – | – | – | – | – | – | – | – | –
21 | CCCCC12CC1(C(=O)Nc1ccc(C(=O)O)cc1)C(=O)Nc1ccc(Cl)cc12 (stereo not given) | < 5.00 | > 10000 | – | – | – | – | – | – | – | – | – | – | –
22 | C=CCCCC12CC1(C(=O)OCC)C(=O)Nc1ccc(Cl)cc12 (stereo not given) | 9.00 | > 10000 | 7.24 | 8.05 | 7.48 | 5.90 | 7.46 | 6.59 | < 5.00 | < 5.00 | 6.52 | 7.05 | 5.77
23 | CCOC(=O)C12CC1(Cc1ccccc1)c1cc(Cl)ccc1NC2=O (stereo not given) | < 5.00 | > 10000 | – | – | – | – | – | – | – | – | – | – | –
24 | CCCCC12CC1(COC)C(=O)Nc1ccc(Cl)cc12 (stereo not given) | 7.35 | > 10000 | 7.38 | 7.70 | 7.34 | 5.54 | 7.48 | 6.14 | 5.30 | < 5.00 | 6.14 | 6.92 | 5.57
25 | CCCCC12CCC1(C(=O)OCC)C(=O)Nc1ccc(Cl)cc12 (stereo not given) | 6.99 | > 10000 | – | – | – | – | – | – | – | – | – | – | –
26 | CCOC(=O)C12CC1(CC)c1cc(Cl)ccc1NC2=O (stereo not given) | 5.30 | > 10000 | – | – | – | – | – | – | – | – | – | – | –

Source: ChEMBL document CHEMBL1146842, “Design, synthesis, and biological evaluations of novel quinolones as HIV-1 non-nucleoside reverse transcriptase inhibitors” (Bioorg Med Chem Lett, 2006)
